Experiments:
[1] = biological target: T1, Aurora kinase A (Homo sapiens) (UniProt O14965); experiment: Inhibition of AURKA (unknown origin) at 5.5 uM by Caliper Mobility Shift Assay
T1 sequence (whole entry): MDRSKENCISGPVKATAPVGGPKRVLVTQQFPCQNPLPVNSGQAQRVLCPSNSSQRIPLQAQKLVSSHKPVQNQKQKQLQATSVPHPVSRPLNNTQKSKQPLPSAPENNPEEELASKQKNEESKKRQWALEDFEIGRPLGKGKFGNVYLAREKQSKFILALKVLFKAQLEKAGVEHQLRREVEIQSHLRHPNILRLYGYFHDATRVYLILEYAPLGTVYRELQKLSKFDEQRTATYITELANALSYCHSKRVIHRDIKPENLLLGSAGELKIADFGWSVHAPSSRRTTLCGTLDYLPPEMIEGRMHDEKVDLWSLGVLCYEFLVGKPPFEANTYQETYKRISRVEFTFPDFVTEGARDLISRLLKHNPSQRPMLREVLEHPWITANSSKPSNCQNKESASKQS

[2] = biological target: T2, Tyrosine-protein kinase ZAP-70 (Homo sapiens) (UniProt P43403); experiment: Inhibition of ZAP70 (unknown origin) at 5.5 uM by Caliper Mobility Shift Assay
T2 sequence (whole entry): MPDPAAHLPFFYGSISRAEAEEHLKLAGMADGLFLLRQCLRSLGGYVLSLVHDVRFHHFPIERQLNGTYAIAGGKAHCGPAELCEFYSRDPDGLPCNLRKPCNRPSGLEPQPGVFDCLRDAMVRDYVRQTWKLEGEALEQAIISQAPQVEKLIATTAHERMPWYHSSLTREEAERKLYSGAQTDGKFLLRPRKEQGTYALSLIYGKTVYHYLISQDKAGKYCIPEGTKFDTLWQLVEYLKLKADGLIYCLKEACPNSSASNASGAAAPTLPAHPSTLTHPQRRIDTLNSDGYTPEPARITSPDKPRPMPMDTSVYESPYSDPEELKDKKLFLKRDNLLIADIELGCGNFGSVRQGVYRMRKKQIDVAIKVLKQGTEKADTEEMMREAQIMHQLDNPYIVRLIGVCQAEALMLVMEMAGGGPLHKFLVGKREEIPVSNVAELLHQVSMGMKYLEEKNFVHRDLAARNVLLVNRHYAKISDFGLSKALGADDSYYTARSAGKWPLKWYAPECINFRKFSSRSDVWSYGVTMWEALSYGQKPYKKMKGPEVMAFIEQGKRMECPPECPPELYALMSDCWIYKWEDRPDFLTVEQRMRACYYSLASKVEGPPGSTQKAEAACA

[3] = biological target: Protein kinase C theta type (Homo sapiens) (UniProt Q04759); experiment: Inhibition of PRKCQ (unknown origin) at 5.5 uM by Caliper Mobility Shift Assay
[4] = biological target: Mitogen-activated protein kinase 9 (Homo sapiens) (UniProt P45984); experiment: Inhibition of JNK2 (unknown origin) at 5.5 uM by Caliper Mobility Shift Assay
[5] = biological target: Tyrosine-protein kinase SYK (Homo sapiens) (UniProt P43405); experiment: Inhibition of SYK (unknown origin) at 5.5 uM by Caliper Mobility Shift Assay
[6] = biological target: Serine/threonine-protein kinase PAK 2 (Homo sapiens) (UniProt Q13177); experiment: Inhibition of PAK2 (unknown origin) at 5.5 uM by Caliper Mobility Shift Assay
[7] = biological target: Tyrosine-protein kinase Lck (Homo sapiens) (UniProt P06239); experiment: Inhibition of LCK (unknown origin) at 5.5 uM by Caliper Mobility Shift Assay
[8] = biological target: Casein kinase I isoform gamma-3 (Homo sapiens) (UniProt Q9Y6M4); experiment: Inhibition of CSNK1G3 (CK1) (unknown origin) at 5.5 uM by Caliper Mobility Shift Assay
[9] = biological target: T3, Interleukin-1 receptor-associated kinase 4 (Homo sapiens) (UniProt Q9NWZ3); experiment: Inhibition of IRAK4 (unknown origin) at 5.5 uM by Caliper Mobility Shift Assay
T3 sequence (whole entry): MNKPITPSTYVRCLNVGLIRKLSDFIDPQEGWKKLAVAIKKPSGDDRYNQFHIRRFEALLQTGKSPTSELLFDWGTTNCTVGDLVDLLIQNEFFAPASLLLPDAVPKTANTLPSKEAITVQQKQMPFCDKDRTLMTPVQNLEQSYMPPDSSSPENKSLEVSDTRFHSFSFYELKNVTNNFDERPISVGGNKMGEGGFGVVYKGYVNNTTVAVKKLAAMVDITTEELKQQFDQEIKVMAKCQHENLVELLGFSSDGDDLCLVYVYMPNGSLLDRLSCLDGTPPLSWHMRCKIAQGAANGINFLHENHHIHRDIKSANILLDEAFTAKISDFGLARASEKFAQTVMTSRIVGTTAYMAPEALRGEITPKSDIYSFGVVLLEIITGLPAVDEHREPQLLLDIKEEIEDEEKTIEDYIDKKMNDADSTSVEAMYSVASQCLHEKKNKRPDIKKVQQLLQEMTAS

[10] = biological target: Tyrosine-protein kinase Lyn (Homo sapiens) (UniProt P07948); experiment: Inhibition of LYN (unknown origin) at 5.5 uM by Caliper Mobility Shift Assay
[11] = biological target: T4, Serine/threonine-protein kinase 4 (Homo sapiens) (UniProt Q13043); experiment: Inhibition of STK4 (unknown origin) at 5.5 uM by Caliper Mobility Shift Assay
T4 sequence (whole entry): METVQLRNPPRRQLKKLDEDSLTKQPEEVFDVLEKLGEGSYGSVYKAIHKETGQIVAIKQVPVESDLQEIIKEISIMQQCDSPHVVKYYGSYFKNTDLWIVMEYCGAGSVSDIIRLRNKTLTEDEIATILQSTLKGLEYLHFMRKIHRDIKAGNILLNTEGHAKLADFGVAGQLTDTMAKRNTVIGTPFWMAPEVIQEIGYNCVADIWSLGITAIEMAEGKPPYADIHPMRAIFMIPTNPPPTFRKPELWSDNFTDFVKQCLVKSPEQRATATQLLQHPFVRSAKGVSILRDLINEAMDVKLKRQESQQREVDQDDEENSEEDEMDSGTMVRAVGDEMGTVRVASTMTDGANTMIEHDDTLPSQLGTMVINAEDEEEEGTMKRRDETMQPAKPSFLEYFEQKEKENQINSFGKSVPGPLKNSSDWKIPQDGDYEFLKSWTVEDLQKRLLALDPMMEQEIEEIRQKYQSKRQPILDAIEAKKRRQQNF

[12] = biological target: Mitogen-activated protein kinase 1 (Homo sapiens) (UniProt P28482); experiment: Inhibition of MAPK1 (ERK2) (unknown origin) at 5.5 uM by Caliper Mobility Shift Assay
[13] = biological target: Tyrosine-protein kinase BTK (Homo sapiens) (UniProt Q06187); experiment: Inhibition of BTK (unknown origin) at 5.5 uM by Caliper Mobility Shift Assay
[14] = biological target: Tyrosine-protein kinase ABL1 (Homo sapiens) (UniProt P00519); experiment: Inhibition of ABL1 (unknown origin) at 5.5 uM by Caliper Mobility Shift Assay
[15] = biological target: Ribosomal protein S6 kinase beta-2 (Homo sapiens) (UniProt Q9UBS0); experiment: Inhibition of S6K (unknown origin) at 5.5 uM by Caliper Mobility Shift Assay

Measured: inhibition

Sequence of Tyrosine-protein kinase BTK (Homo sapiens) (Q06187 whole entry): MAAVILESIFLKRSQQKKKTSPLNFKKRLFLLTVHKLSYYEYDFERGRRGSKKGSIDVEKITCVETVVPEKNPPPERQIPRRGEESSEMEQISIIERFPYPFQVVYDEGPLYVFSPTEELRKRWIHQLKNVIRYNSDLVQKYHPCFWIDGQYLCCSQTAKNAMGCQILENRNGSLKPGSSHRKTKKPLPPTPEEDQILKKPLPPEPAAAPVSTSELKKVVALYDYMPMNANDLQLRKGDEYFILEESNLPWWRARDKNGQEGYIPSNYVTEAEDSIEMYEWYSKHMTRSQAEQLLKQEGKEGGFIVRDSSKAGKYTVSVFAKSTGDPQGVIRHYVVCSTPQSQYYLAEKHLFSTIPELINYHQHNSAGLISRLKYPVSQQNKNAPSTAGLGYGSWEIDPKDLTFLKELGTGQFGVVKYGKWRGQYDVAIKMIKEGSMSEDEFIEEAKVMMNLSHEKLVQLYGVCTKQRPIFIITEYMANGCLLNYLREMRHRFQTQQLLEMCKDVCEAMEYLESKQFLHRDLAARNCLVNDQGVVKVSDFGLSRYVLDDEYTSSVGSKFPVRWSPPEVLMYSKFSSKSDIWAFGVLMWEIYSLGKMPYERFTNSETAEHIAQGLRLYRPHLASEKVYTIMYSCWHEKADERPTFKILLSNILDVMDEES
Sequence of Mitogen-activated protein kinase 1 (Homo sapiens) (P28482 whole entry): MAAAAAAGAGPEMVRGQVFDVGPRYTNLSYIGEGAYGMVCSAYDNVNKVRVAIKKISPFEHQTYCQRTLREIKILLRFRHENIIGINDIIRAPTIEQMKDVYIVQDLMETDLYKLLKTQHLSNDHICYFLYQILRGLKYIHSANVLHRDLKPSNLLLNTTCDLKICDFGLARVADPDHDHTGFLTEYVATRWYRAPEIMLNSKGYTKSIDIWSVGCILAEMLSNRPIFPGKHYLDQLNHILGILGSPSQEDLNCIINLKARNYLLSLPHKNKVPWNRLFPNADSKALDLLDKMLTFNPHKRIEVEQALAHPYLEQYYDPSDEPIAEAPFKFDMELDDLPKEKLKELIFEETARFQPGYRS
Sequence of Mitogen-activated protein kinase 9 (Homo sapiens) (P45984 whole entry, looked up): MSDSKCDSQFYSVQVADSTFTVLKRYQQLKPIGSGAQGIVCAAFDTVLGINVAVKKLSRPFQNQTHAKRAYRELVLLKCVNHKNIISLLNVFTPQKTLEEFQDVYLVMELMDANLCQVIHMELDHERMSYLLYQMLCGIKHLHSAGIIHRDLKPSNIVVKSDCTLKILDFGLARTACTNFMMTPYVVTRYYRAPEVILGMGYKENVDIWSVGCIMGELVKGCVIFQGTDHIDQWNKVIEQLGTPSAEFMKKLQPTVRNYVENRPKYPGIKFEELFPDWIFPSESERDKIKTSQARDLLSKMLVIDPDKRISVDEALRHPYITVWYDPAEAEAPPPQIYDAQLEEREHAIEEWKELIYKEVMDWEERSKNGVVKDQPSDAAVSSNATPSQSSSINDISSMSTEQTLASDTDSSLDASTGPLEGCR
Sequence of Ribosomal protein S6 kinase beta-2 (Homo sapiens) (Q9UBS0 whole entry): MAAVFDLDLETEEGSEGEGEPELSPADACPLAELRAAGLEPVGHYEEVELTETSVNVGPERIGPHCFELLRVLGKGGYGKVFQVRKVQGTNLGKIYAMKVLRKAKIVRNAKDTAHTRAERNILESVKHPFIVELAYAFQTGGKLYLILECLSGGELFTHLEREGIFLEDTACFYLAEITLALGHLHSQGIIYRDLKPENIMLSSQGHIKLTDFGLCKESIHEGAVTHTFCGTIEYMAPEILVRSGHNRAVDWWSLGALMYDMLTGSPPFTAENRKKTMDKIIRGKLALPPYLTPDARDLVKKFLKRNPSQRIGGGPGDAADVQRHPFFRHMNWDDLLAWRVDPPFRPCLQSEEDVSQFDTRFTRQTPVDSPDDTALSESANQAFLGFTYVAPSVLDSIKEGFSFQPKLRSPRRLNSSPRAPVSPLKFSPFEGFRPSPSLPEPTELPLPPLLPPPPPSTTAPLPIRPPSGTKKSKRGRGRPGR
Sequence of Casein kinase I isoform gamma-3 (Homo sapiens) (Q9Y6M4 whole entry, looked up, canonical isoform): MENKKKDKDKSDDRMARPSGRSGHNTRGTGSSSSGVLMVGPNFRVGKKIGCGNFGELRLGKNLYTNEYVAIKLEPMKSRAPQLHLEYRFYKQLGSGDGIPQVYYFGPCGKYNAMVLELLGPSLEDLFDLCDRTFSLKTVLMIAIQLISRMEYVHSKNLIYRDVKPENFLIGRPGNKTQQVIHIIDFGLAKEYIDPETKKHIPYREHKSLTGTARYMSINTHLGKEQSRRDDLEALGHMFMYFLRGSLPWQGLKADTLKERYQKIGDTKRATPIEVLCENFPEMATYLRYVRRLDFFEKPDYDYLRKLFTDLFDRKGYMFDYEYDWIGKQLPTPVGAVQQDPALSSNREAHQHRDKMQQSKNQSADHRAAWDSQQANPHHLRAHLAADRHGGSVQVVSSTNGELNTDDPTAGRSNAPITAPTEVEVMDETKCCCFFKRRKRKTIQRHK
Sequence of Tyrosine-protein kinase ABL1 (Homo sapiens) (P00519 whole entry): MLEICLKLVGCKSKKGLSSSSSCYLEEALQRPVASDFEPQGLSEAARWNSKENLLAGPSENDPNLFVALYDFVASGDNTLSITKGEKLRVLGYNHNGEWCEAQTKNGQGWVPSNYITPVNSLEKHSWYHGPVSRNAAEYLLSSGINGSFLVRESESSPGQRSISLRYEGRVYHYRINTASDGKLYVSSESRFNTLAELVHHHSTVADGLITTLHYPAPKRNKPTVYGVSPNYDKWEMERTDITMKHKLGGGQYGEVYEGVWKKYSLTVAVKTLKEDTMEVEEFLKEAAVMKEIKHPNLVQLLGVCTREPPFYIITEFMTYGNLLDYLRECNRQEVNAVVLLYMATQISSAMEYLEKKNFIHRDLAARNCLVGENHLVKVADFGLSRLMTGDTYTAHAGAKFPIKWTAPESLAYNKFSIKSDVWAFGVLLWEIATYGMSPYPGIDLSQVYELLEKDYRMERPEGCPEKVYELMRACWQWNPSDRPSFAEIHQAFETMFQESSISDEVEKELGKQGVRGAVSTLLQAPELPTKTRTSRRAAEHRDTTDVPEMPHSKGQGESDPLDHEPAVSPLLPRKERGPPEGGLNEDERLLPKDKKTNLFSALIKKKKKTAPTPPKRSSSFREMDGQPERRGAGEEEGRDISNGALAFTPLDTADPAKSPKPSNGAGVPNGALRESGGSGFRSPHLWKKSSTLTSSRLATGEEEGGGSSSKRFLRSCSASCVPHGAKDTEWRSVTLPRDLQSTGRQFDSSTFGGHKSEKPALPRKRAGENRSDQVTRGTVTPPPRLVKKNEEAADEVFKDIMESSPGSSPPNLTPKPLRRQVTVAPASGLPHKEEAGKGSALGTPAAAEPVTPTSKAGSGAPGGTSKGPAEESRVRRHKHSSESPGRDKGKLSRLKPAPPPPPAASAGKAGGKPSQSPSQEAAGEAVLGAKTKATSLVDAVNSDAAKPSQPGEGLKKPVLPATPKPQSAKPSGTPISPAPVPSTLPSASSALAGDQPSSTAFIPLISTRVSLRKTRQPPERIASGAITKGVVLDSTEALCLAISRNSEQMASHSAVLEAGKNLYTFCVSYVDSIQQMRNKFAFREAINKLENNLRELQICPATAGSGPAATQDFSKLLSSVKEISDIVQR
Sequence of Tyrosine-protein kinase Lck (Homo sapiens) (P06239 2-509 limits assumed): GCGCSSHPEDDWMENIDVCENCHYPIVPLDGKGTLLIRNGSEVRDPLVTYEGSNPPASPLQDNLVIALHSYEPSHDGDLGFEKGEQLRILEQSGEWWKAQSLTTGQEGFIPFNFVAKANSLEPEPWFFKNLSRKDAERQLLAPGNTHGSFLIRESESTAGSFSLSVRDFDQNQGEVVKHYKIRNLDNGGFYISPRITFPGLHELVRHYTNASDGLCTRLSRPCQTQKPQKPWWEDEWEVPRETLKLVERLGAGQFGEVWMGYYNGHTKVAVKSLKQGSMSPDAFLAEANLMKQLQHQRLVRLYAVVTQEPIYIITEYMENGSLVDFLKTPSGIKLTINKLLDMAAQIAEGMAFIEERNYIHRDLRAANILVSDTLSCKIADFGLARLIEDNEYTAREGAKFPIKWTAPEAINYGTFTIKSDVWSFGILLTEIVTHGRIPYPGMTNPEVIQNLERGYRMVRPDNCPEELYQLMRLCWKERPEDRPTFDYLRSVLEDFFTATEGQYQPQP
Sequence of Protein kinase C theta type (Homo sapiens) (Q04759 whole entry, looked up): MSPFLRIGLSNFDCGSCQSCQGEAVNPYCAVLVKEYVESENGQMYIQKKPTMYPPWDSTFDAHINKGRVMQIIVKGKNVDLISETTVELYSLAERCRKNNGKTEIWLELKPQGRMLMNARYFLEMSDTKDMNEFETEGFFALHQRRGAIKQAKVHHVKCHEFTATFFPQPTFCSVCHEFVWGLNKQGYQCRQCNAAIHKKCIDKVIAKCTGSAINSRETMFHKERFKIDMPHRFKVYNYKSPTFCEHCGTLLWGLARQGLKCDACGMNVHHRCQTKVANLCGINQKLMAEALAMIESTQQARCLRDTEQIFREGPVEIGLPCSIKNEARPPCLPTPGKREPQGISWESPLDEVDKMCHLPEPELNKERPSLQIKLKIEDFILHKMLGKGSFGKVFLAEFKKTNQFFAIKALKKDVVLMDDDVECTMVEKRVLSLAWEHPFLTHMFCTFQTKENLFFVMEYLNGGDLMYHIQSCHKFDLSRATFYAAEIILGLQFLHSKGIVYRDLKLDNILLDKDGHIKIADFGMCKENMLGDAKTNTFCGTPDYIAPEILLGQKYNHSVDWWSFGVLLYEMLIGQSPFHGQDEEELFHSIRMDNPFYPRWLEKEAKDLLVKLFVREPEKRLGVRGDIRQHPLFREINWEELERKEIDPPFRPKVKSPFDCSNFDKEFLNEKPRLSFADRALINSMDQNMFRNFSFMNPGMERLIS

CC(=O)Nc1cc(-c2c(-c3ccc(F)cc3)nc(Sc3cccc(I)n3)n2C2CCCCC2)ccn1
< 50%: [1] | [2] | [3] | [4] | [5] | [6] | [7] | [8] | [9] | [10] | [11] | [12] | [13] | [14] | [15]

CC(=O)Nc1cc(-c2c(-c3ccc(F)cc3)nc(S/C=C\C(=O)O)n2C2CCCCC2)ccn1
< 50%: [1] | [2] | [3] | [4] | [5] | [6] | [7] | [8] | [9] | [10] | [11] | [12] | [13] | [14] | [15]

CC(=O)Nc1cc(-c2c(-c3ccc(F)cc3)nc(S/C=C\C(=O)O)n2C2CC2)ccn1
< 50%: [1] | [2] | [3] | [4] | [5] | [6] | [7] | [8] | [9] | [10] | [11] | [12] | [13] | [14] | [15]

CC(=O)Nc1cc(-c2c(-c3ccc(F)cc3)nc(S/C=C\C(=O)O)n2CC2CCCO2)ccn1 (racemic)
< 50%: [1] | [2] | [3] | [4] | [5] | [6] | [7] | [8] | [9] | [10] | [11] | [12] | [13] | [14] | [15]

COC(Cn1c(SC2CCC(C(=O)O)CC2O)nc(-c2ccc(F)cc2)c1-c1ccnc(NC(C)=O)c1)OC (stereo not given)
< 50%: [1] | [2] | [3] | [4] | [5] | [6] | [7] | [8] | [9] | [10] | [11] | [12] | [13] | [14] | [15]

Source: ChEMBL document CHEMBL3393036, “Tetra-substituted pyridinylimidazoles as dual inhibitors of p38α mitogen-activated protein kinase and c-Jun N-terminal kinase 3 for potential treatment of neurodegenerative diseases” (J Med Chem, 2015)
